Laboratory results as given in patent US10125098B2, “Therapeutic compounds and methods of use thereof” (GENENTECH, INC., priority 2014, dated 2018).
Counter-ions that a name gives are not always drawn. Like-named read-outs stand apart in the source and are kept apart here.

Experiments:
[1] = molecular target: T1, human NaV1.7 (Homo sapiens, UniProt Q15858); experiment: Patch voltage clamp electrophysiology assay (EP), NaV1.7; type: cell-based; conditions: HEK-293 cells stably expressing NaV1.7 with β1 subunit; whole-cell patch clamp, membrane potential −60 mV (inactivated state)
T1 construct: permanently transfected with an expression vector containing the full-length cDNA coding for the desired human sodium channel α-subunit; expressed in transfected cells; host or cells: HEK-293
Method in brief: (§1)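 HEK-293 cells stably expressing human α-subunit with β1; whole-cell patch clamp (PatchXpress or manual), ambient temperature, pH 7.4 external NaCl, CsF internal. Held at −60 mV (full inactivation), stepped to −150 mV for 20 ms, then test pulse; percent current decrease after compound wash-on taken as block.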

[2] = molecular target: T2, NaV1.5 (Homo sapiens, UniProt Q14524); experiment: Patch voltage clamp electrophysiology assay (EP), NaV1.5; type: cell-based
T2 construct: permanently transfected with an expression vector containing the full-length cDNA coding for the desired human sodium channel α-subunit; expressed in transfected cells; host or cells: HEK-293
Method in brief: as §1

[3] = molecular target: T3, hNav1.7 (Homo sapiens, UniProt Q15858); experiment: Tritiated compound binding (LBA) to membranes from cells expressing hNav1.7 and the β1 subunit, competitive binding; conditions: competitive binding vs 100 pM [3H]compound, 18 h, room temperature, membranes with hNav1.7 and β1 subunit
T3 construct: expressed in transfected cells
Method in brief: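 Membranes from cells expressing hNav1.7 with β1 were incubated 18 h at room temperature with 100 pM tritiated formula (I) compound and increasing test compound, in 100 mM NaCl, 20 mM Tris HCl pH 7.4, 0.01% BSA.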

[4] = human, HEK-293 cells stably expressing human NaV1.5 with β1 subunit, pH 7.4, HEK-293 cells stably expressing NaV1.5 with β1 subunit, whole-cell patch clamp, membrane potential −60 mV (inactivated state)
[5] = HEK-293 cells stably expressing NaV1.5 with β1 subunit, whole-cell patch clamp, membrane potential −60 mV (inactivated state), read-out: Nav1.5

T3 sequence (Q15858 1-1977 isoform Q15858-3): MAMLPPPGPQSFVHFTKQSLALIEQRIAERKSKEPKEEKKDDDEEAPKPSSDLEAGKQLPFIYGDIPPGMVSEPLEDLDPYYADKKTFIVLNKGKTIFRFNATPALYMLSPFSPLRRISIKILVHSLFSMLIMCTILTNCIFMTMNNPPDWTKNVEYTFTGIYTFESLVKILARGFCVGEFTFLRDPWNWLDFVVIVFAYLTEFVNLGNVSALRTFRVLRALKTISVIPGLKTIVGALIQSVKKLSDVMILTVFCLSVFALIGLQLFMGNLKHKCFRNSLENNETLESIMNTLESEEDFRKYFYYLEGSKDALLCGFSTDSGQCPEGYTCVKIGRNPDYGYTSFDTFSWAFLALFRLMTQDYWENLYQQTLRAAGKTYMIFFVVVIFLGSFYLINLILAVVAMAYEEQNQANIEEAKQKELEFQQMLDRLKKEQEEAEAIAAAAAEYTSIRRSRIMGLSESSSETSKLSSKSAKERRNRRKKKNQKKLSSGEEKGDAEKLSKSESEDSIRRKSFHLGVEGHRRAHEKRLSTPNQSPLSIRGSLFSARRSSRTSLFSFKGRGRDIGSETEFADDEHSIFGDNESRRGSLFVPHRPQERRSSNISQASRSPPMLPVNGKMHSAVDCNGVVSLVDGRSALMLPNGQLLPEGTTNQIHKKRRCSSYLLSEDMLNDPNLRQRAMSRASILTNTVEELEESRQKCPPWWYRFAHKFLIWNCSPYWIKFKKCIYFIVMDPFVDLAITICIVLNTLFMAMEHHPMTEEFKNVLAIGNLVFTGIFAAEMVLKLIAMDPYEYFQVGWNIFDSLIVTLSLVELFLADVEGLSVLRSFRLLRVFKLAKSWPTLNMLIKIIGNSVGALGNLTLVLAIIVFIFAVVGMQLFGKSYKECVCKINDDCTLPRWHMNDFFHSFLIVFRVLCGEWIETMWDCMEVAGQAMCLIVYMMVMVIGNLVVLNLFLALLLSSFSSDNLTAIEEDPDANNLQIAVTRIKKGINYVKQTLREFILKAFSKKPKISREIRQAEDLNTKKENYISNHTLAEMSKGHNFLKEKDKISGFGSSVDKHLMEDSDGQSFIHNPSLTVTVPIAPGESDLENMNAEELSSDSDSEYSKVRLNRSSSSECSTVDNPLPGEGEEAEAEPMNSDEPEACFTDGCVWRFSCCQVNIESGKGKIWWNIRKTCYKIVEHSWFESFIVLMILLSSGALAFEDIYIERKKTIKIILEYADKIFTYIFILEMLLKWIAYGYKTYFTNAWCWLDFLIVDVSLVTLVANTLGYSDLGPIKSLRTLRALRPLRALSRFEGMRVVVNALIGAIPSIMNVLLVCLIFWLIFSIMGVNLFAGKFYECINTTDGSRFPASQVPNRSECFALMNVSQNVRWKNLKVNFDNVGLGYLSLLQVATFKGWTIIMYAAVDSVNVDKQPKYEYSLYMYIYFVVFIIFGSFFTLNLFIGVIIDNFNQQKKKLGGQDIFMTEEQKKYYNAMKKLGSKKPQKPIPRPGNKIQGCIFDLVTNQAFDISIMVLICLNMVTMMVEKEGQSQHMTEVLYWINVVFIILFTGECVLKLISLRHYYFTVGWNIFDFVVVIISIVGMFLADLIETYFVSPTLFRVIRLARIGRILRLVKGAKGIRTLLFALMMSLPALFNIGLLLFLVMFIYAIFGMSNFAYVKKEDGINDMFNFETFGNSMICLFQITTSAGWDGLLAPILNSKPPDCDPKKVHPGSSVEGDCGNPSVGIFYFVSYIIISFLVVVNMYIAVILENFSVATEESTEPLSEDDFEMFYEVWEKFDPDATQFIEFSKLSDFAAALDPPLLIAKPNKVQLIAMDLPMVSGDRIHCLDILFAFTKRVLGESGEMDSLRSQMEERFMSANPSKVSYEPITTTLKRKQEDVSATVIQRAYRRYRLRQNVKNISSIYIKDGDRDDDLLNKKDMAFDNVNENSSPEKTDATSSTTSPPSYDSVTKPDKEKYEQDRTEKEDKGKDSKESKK
T3 sequence (Q07699 19-218 partner): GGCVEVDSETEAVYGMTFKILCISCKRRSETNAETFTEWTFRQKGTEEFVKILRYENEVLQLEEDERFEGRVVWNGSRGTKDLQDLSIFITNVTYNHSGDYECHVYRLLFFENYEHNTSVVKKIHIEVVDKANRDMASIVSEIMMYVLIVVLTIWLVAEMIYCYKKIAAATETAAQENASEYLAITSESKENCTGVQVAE
T1 sequence (Q15858 1-1977 isoform Q15858-3): as the sequence (Q15858 1-1977 isoform Q15858-3) above
T1 sequence (Q07699 19-218 partner): as the sequence (Q07699 19-218 partner) above
T2 sequence (Q14524 whole entry): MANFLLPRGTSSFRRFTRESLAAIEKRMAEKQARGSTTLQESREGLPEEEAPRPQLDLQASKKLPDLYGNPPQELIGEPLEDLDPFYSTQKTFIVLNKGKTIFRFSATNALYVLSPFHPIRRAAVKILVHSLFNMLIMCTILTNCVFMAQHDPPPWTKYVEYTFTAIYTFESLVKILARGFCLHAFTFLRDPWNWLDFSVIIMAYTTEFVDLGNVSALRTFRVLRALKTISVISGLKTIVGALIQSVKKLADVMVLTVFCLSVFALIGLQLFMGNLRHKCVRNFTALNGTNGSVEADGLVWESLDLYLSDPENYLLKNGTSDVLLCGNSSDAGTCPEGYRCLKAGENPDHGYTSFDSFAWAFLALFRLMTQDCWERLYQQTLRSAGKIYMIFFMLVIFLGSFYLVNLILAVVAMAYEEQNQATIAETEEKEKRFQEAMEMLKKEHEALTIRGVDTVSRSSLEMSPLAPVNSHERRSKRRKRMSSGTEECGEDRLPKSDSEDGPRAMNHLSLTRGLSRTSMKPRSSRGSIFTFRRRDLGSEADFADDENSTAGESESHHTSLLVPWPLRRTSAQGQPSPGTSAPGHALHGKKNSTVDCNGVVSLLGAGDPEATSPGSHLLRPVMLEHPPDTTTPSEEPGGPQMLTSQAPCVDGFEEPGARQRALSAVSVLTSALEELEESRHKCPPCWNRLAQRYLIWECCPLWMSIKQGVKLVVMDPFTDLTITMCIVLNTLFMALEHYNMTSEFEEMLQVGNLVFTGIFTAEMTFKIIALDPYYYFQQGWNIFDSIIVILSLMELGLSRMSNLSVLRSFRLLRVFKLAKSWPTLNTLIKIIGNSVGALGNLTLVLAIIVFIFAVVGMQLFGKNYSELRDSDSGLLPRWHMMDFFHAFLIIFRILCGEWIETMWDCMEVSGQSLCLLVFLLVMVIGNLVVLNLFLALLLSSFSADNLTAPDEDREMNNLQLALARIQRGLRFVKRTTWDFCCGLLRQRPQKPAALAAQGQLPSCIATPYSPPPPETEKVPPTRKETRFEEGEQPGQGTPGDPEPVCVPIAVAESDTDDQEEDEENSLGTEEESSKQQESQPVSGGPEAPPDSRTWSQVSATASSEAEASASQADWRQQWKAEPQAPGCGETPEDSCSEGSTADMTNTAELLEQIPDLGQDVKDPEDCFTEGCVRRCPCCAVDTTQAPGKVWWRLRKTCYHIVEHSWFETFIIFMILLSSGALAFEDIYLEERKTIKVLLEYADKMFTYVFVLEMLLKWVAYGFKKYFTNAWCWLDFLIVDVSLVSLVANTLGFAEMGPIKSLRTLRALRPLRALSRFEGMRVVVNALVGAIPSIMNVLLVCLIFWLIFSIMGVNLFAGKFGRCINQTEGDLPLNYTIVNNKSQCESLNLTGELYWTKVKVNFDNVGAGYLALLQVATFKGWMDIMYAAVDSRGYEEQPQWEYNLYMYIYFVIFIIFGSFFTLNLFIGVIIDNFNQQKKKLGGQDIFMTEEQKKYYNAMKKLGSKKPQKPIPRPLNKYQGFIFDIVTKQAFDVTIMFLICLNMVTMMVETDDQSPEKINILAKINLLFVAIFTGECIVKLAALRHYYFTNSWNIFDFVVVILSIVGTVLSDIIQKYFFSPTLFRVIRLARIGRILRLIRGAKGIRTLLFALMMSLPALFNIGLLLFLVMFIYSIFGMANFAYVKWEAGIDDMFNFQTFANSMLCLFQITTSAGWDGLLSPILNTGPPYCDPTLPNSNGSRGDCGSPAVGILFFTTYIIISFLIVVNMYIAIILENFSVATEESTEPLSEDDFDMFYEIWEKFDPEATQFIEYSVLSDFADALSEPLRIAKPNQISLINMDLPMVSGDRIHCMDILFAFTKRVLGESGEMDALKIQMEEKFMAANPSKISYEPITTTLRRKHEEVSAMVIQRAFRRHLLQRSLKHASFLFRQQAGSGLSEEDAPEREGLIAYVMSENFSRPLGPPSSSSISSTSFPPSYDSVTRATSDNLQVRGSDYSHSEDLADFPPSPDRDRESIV

Structure (SMILES)	IC50 [1] [nM]	IC50 [2, 4] [nM]	IC50 [3] [nM]	IC50 [2, 5] [nM]	IC50 [2] [nM]
CC(C)COc1ncc(Oc2cc(F)c(C(=O)N3CCC[C@H]3C(=O)O)cc2C2CC2)cc1C1CC1 [Example 98, (5-cyclopropyl-4-((5-cyclopropyl-6-isobutoxypyridin-3-yl)oxy)-2-fluorobenzoyl)-L-proline trifluoroacetic acid salt and (4-((5-chloro-6-isobutoxypyridin-3-yl)oxy)-5-cyclopropyl-2-fluorobenzoyl)-L-proline trifluoroacetic acid salt]	740	≥ 30000	440	–	–
O=C(O)[C@@H]1CCCN1C(=O)c1cc(C2CC2)c(OCC2(F)CN(Cc3ccc(Cl)cc3C(F)(F)F)C2)cc1F [Example 99, 1-(4-((1-(4-chloro-2-(trifluoromethyl)benzyl)-3-fluoroazetidin-3-yl)methoxy)-5-cyclopropyl-2-fluorobenzoyl)pyrrolidine-2-carboxylic acid trifluoroacetic acid salt]	550	≥ 30000	230	–	–
O=C(O)[C@@H]1C[C@@H](F)CN1C(=O)c1cc(C2CC2)c(OCC2CCN(Cc3cc(C(F)(F)F)cc(Cl)c3F)CC2)cc1F [Example 101, (2S,4R)-1-(4-((1-(3-chloro-2-fluoro-5-(trifluoromethyl)benzyl)-piperidin-4-yl)methoxy)-5-cyclopropyl-2-fluorobenzoyl)-4-fluoropyrrolidine-2-carboxylic acid]	520	≥ 30000	66	–	–
O=C(O)[C@@H]1C[C@@H](F)CN1C(=O)c1cc(C2CC2)c(OCC2(F)CCN(Cc3cc(C(F)(F)F)cc(Cl)c3F)CC2)cc1F [Example 102, (2S,4R)-1-(4-((1-(3-chloro-2-fluoro-5-(trifluoromethyl)benzyl)-4-fluoropiperidin-4-yl)methoxy)-5-cyclopropyl-2-fluorobenzoyl)-4-fluoropyrrolidine-2-carboxylic acid]	330	–	65	23000	–
O=C(O)[C@@H]1C[C@@H](F)CN1C(=O)c1cc(C2CC2)c(OCC2CCN(Cc3cc(C(F)(F)F)ccc3F)CC2)cc1F [Example 103, (2S,4R)-1-(5-cyclopropyl-2-fluoro-4-((1-(2-fluoro-5-(trifluoromethyl)benzyl)-piperidin-4-yl)methoxy)benzoyl)-4-fluoropyrrolidine-2-carboxylic acid]	340	≥ 30000	33	–	–
O=C(O)[C@@H]1C[C@@H](F)CN1C(=O)c1cc(C2CC2)c(OCC2CCN(Cc3ccc(Cl)c(F)c3)CC2)cc1F [Example 104, (2S,4R)-1-(4-((1-(4-chloro-3-fluorobenzyl)piperidin-4-yl)methoxy)-5-cyclopropyl-2-fluorobenzoyl)-4-fluoropyrrolidine-2-carboxylic acid]	1600	≥ 30000	130	–	–
O=C(O)[C@@H]1C[C@@H](F)CN1C(=O)c1cc(C2CC2)c(OCC2CCN(Cc3cc(Cl)cc(OC(F)(F)F)c3)CC2)cc1F [Example 105, (2S,4R)-1-(4-((1-(3-chloro-5-(trifluoromethoxy)benzyl)piperidin-4-yl)methoxy)-5-cyclopropyl-2-fluorobenzoyl)-4-fluoropyrrolidine-2-carboxylic acid]	220	–	37	22000	–
O=C(O)[C@@H]1C[C@@H](F)CN1C(=O)c1cc(C2CC2)c(OCC2(F)CCN(Cc3cc(C(F)(F)F)ccc3Cl)CC2)cc1F [Example 106, (2S,4R)-1-(4-((1-(2-chloro-5-(trifluoromethyl)benzyl)-4-fluoropiperidin-4-yl)methoxy)-5-cyclopropyl-2-fluorobenzoyl)-4-fluoropyrrolidine-2-carboxylic acid]	130	–	27	21000	–
CC(C)Nc1ccc(F)cc1CN1CCC(COc2cc(F)c(C(=O)N3C[C@H](F)C[C@H]3C(=O)O)cc2C2CC2)CC1 [Example 107, (2S,4R)-1-(5-cyclopropyl-2-fluoro-4-((1-(5-fluoro-2-(isopropylamino)benzyl)-piperidin-4-yl)methoxy)benzoyl)-4-fluoropyrrolidine-2-carboxylic acid]	730	–	39	12000	–
O=C(O)[C@@H]1C[C@@H](F)CN1C(=O)c1cc(C2CC2)c(OCC2CCN(Cc3cc(F)c(Cl)cc3Cl)CC2)cc1F [Example 108, (2S,4R)-1-(5-cyclopropyl-4-((1-(2,4-dichloro-5-fluorobenzyl)piperidin-4-yl)methoxy)-2-fluorobenzoyl)-4-fluoropyrrolidine-2-carboxylic acid]	220	–	17	9600	–
CC(C)Oc1ncc(CN2CCC(F)(COc3cc(F)c(C(=O)N4C[C@H](F)C[C@H]4C(=O)O)cc3C3CC3)CC2)cc1Cl [Example 109, (2S,4R)-1-(4-((1-((5-chloro-6-isopropoxypyridin-3-yl)methyl)-4-fluoropiperidin-4-yl)methoxy)-5-cyclopropyl-2-fluorobenzoyl)-4-fluoropyrrolidine-2-carboxylic acid]	890	≥ 30000	51	–	–
O=C(NC(C(=O)O)C1CCC1)c1cc(C2CC2)c(OCC2(F)CCN(Cc3cc(C(F)(F)F)ccc3Cl)CC2)cc1F (stereo not drawn) [Example 110, 2-(4-((1-(2-chloro-5-(trifluoromethyl)benzyl)-4-fluoropiperidin-4-yl)methoxy)-5-cyclopropyl-2-fluorobenzamido)-2-cyclobutyl acetic acid]	10000	–	370	10000	–
C[C@@H]1[C@@H](C(=O)O)N(C(=O)c2cc(C3CC3)c(OCC3(F)CCN(Cc4cc(C(F)(F)F)ccc4Cl)CC3)cc2F)C[C@@H]1F [Example 111, (2S,3R,4R)-1-(4-((1-(2-chloro-5-(trifluoromethyl)benzyl)-4-fluoropiperidin-4-yl)methoxy)-5-cyclopropyl-2-fluorobenzoyl)-4-fluoro-3-methylpyrrolidine-2-carboxylic acid]	230	–	36	14000	–
O=C(O)[C@@H]1CCCN1C(=O)c1cc(C2CC2)c(OC2CCN(Cc3cc(Cl)cc(Cl)c3)CC2)cc1F [Example 112, (S)-1-(5-cyclopropyl-4-(1-(3,5-dichlorobenzyl)piperidin-4-yloxy)-2-fluorobenzoyl)pyrrolidine-2-carboxylic acid]	2000	≥ 30000	520	–	–
O=C(O)[C@@H]1CCCN1C(=O)c1cc(C2CC2)c(CN2CC(Oc3cc(Cl)cc(Cl)c3)C2)cc1F [Example 122, (5-cyclopropyl-4-((3-(3,5-dichlorophenoxy)azetidin-1-yl)methyl)-2-fluorobenzoyl)-L-proline]	2000	≥ 30000	430	–	–
O=C(O)[C@@H]1CC2(CC2)CN1C(=O)c1cc(C2CC2)c(OCC2(F)CCN(Cc3ccc(C(F)(F)F)cc3Cl)CC2)cc1F [Example 124, (S)-5-(4-((1-(2-chloro-4-(trifluoromethyl)benzyl)-4-fluoropiperidin-4-yl)methoxy)-5-cyclopropyl-2-fluorobenzoyl)-5-azaspiro[2.4]heptane-6-carboxylic acid]	1500	–	400	–	12000
O=C(O)[C@@H]1C[C@@H](F)CN1C(=O)c1cc(C2CC2)c(OCC2(F)CCN(Cc3ccc(C(F)(F)F)cc3Cl)CC2)cc1F [Example 127, (2S, 4R)-1-(4-((1-(2-chloro-4-(trifluoromethyl)benzyl)-4-fluoropiperidin-4-yl)methoxy)-5-cyclopropyl-2-fluorobenzoyl)-4-fluoropyrrolidine-2-carboxylic acid]	400	–	120	13000	–
O=C(O)[C@@H]1C[C@@H](F)CN1C(=O)c1cc(C2CC2)c(OCC2(F)CCN(Cc3ccc(F)c(Cl)c3)CC2)cc1F [Example 128, (2S,4R)-1-(4-((1-(3-chloro-4-fluorobenzyl)-4-fluoropiperidin-4-yl)methoxy)-5-cyclopropyl-2-fluorobenzoyl)-4-fluoropyrrolidine-2-carboxylic acid]	710	≥ 30000	87	–	–
CC(c1cc(Cl)cc(Cl)c1)N1CCC(F)(COc2cc(F)c(C(=O)N3C[C@H](F)C[C@H]3C(=O)O)cc2C2CC2)CC1 (stereo partly drawn) [Example 129, (2S,4R)-1-(5-cyclopropyl-4-((1-(1-(3,5-dichlorophenyl)ethyl)-4-fluoropiperidin-4-yl)methoxy)-2-fluorobenzoyl)-4-fluoropyrrolidine-2-carboxylic acid]	160	–	22	9400	–
COC[C@H](c1cc(Cl)cc(Cl)c1)N1CCC(COc2cc(F)c(C(=O)N3C[C@H](F)C[C@H]3C(=O)O)cc2C2CC2)CC1 [Example 130, (2S,4R)-1-(5-cyclopropyl-4-((1-((S)-1-(3,5-dichlorophenyl)-2-methoxyethyl)piperidin-4-yl)methoxy)-2-fluorobenzoyl)-4-fluoropyrrolidine-2-carboxylic acid]	160	–	27	14000	–
